≈ marks a conversion by molar mass, not a printed value. Entries after “also recorded” stand apart in the source; their conditions may differ. Where two headings read alike, the source gives them in different places.
What was measured:
[1] = tested on: Saccharomyces cerevisae FY833(SC) cells compared with human renal cells 293Q; details: FIG. 3
[2] = tested on: Saccharomyces cerevisae FY833(SC) cells; experiment: Viability of Saccharomyces cerevisae FY833 (SC) cells at various concentrations; type: cell-based; details: FIG. 1, various concentrations; listed as amide 7
Protocol: All derivatives were tested for antibiotic activity in yeast cultures of S. cerevisiae.

Candida kruzei = experiment: Antifungal activity in vitro by flow cytometry, Candida kruzei; type: cell-based; details: read-out: CF50 Candida kruzei
Protocol: (§1) The antifungal activity of the polyene macrolide derivate of the present invention was determined by flow cytometry method earlier described (Pinto et al., J. Medical Microbiology, 2009; 58, 1454-1462; Pina-Vaz and Rodriguez, Methods Mol. Biol. 2010; 638:281-289). For the test two strains of Candida albicans (ATCC 10231 and 752) and Candida kruzei were used. A cellular suspension of 1×10^6 UFC/mL was used, which has sown in 96-well plates. […] As controls were used: untreated yeasts (control of living cells), yeasts exposed to UV radiation (arrest, inhibition of proliferation), and yeasts exposed at temperature of 100° C. (dead yeasts). Cells were collected by centrifugation at 10,000×g for 10 min, they were washed once in phosphate buffer. […] of propidium iodide 0.1 mg/mL were added to the cell suspension. It was incubated during 30 minutes at room temperature and protected from light. Finally, the samples were analyzed by flow cytometry (Becton-Dickinson Facsc Calibur, laser argon 480 nm). The intrinsic parameters and fluorescence in the FL2 channel (yellow/orange fluorescence) for FUN and channel FL3 (red fluorescence, filter 630 nm) for propidium iodide were acquired and registered on a logarithmic scale for a minimum of 7500 events per sample. For data analysis, the quadrants were adjusted in a plot of data lines of fluorescence intensity of samples. […] These quadrants were used to quantify the percentile of cells showing altered fluorescence compared to drug-free controls.

human erythrocytes = experiment: Hemolytic assay on human erythrocytes; type: cell-based; details: 1 hour
Protocol: The hemotoxicity of the polyene macrolide derivative of the present invention was determined by measuring the toxicity to human erythrocytes (values HE50) using a method established by Cybulska, et al. (Cybulska, B., Borowski, E. and Gary-Bobo, M. Relationship between ionophoric and hemolytic activities of perimycin A and vacidin A, two polyene macrolide antifungal antibiotics. Biochem Pharmacol. 1989; 38(11): 1755-1762). For determining the haematoxicity 2 mL blood were obtained and placed in a tube with EDTA. The number of erythrocytes was counted in a Neubauer chamber, and 1×10^7 cells/mL were placed in test tubes. The erythrocytes were resuspended in 450 μL of KCl 150 mM+Tris 3 mM buffer. The erythrocytes were treated with concentrations of 0.01, 0.1, 1, 10 y 100 μM and incubated in a water bath for 1 hour. They were then centrifuged at 1500 rpm for 15 seconds; 150 μL were taken from the supernatant and placed in 96-well plates; the optical density of each group was measured using a plate reader at a wavelength of 550 nm. We included one tube with the drug solvent (DMSO 1%) as internal control. We also included one tube only with erythrocytes and 500 μl of buffer KCl 150 mM+Tris 3 mM, which we consider as a negative control group and a tube with 500 μl of red cells and 35 mM NaCl (positive control).

Candida albicans (10231) = details: Preobrazhenskaya M; cited from earlier work
Candida albicans DSY294 = details: Carreira E.; cited from earlier work
[3] = comparison value, source not given; cited from earlier work
[4] = 10 μM AmB; from Venegas et al.; cited from earlier work
[5] = tested on: Candida albicans ATCC 10231; experiment: Antifungal activity in vitro by flow cytometry, Candida albicans ATCC 10231; type: cell-based; details: ATCC10231, 24 h at 37° C., read-out: CF50 Candida albicans ATCC 10231
Protocol: as §1

physchem = details: DMSO, organic solvent or mixture
[6] = Unit channel studies in chicken egg lecithin bilayers with ergosterol; details: AmB 2 μM; 30° C.
Protocol: Unit channel studies were performed according to procedures described earlier (Cotero, et al., supra, Venegas, et al., supra). Required liposomal suspensions were prepared using lecithin with cholesterol or ergosterol. These suspensions were placed in an ultrasonic bath for 15 minutes to produce unilamellar vesicles. Subsequently, the suspension was placed in a 100 μl eppendorf and a lipid bilayer was formed on the tip of a micro-electrode. The unit channels of amphotericin and of the invented compounds were incorporated to this bilayer. The unit channel current of the various compounds was recorded with an electrometer, and then these records were analyzed by determining the activity of the compounds and the characteristics of the channels formed.
The activity is determined by the presence of the various channels formed by polyenes in the lipid bilayer (Cotero, et al., supra, Venegas, et al., supra). […] This conductance is the effect of all the channels present and was determined by the unit channel technique earlier described.

COC(=O)[C@@H](Cc1c[nH]c2ccccc12)NC(=O)[C@@H]1C(O)C[C@@]2(O)C[C@@H](O)C[C@@H](O)[C@H](O)CC[C@@H](O)C[C@@H](O)CC(=O)OC(C)C(C)[C@H](O)C(C)/C=C/C=C/C=C/C=C/C=C/C=C/C=C/[C@H](OC3OC(C)C(O)C(N)C3O)CC1O2 (stereo partly drawn) [A-7, N-(D)-tryptophanamide of AmB]
advantage of selectivity over AmB (factor) [1]: 4 | inhibitory capacity / potency on SC cells compared to AmB [2]: the most similar; also recorded: the highest power of the derivatives | IC50 (Candida kruzei; 24 h): > 10 µM | HE50 (Hemolysis 50) (human erythrocytes): 80 µM

C[C@@H]1[C@H](O)[C@@H](C)/C=C/C=C/C=C/C=C/C=C/C=C/C=C/[C@H](O[C@@H]2O[C@H](C)[C@@H](O)[C@H](N)[C@@H]2O)C[C@@H]2O[C@](O)(C[C@@H](O)C[C@@H](O)[C@H](O)CC[C@@H](O)C[C@@H](O)CC(=O)O[C@H]1C)C[C@H](O)[C@H]2C(=O)O [AmB, Amphotericin B]
MIC50-Candida albicans (10231) (Candida albicans (10231)): 0.11 µg/mL (≈ 0.119 µM) | MIC-Candida albicans DSY294 (Candida albicans DSY294): 0.0004 mM (≈ 0.37 µg/mL) | solubility of AmB [3]: 10 µg/mL | Opening probability, channel type I [4]: 0.59% | Opening probability, channel type II [4]: 0.26% | Opening probability, channel type III [4]: 0.08% | Opening probability, channel type IV [4]: 4.06% | Opening probability, channel type V [4]: 1.81% | Opening probability, channel type VI [4]: 0.93% | IC50 (Candida kruzei; 24 h at 37° C.): > 10 µM | HE50 (Hemolysis 50) (human erythrocytes): 7 µM | IC50 [5]: 0.2 µM | solubility (physchem): ≤ 20 mM | Average conductance ergosterol [6]: 600 ± 210 fS

Reference: patent US20140256663A1, “Amphotericin Analogous Compounds and Pharmaceutical Compositions Containing Them” (CENTRO DE INVESTIGACION Y DE ESTUDIOS AVANZADOS DEL …, priority 2010, published 2014)
